Results published in patent US7888386B2, “3-(phenoxyphenylmethyl)pyrrolidine compounds” (Theravance, Inc., priority 2008, dated 2011).
Read-outs that look alike come from different tables or passages of the source.

Columns and labels:
[1] = target: T1, hSERT (Homo sapiens, UniProt P31645); test: hSERT binding assay (Assay 1)
T1 construct: expressed in transfected cells; host or cells: HEK-293 derived cell line, stably transfected; membrane preparation
Procedure: (§1) Membrane radioligand binding assays were used to measure competitive inhibition of labeled ligand (^3H-citalopram or ^3H-nisoxetine or ^3H-WIN35428) binding to membranes prepared from cells expressing the respective human recombinant transporter (hSERT or hNET or hDAT) in order to determine the pKi values of test compounds at the transporters.
(§2) Recombinant human embryonic kidney (HEK-293) derived cell lines stably transfected with hSERT or hNET, respectively, were grown in DMEM medium supplemented with 10% dialyzed FBS (for hSERT) or FBS (for hNET), 100 μg/ml penicillin, 100 μg/ml streptomycin, 2 mM L-glutamine and 250 μg/ml of the aminoglycoside antibiotic G418, in a 5% CO2 humidified incubator at 37° C. When cultures reached 80% confluence, the cells were washed thoroughly in PBS (without Ca^2+ and Mg^2+) and lifted with 5 mM EDTA in PBS. Cells were pelleted by centrifugation, resuspended in lysis buffer (10 mM Tris-HCl, pH 7.5 containing 1 mM EDTA), homogenized, pelleted by centrifugation, then resuspended in 50 mM Tris-HCl, pH 7.5 and 10% sucrose at 4° C. Protein concentration of the membrane suspension was determined using a Bio-Rad Bradford Protein Assay kit. Membranes were snap frozen and stored at −80° C. Chinese hamster ovary membranes expressing hDAT (CHO-DAT) were purchased from PerkinElmer and stored at −80° C.
(§3) Stock solutions (10 mM in DMSO) of test compound were prepared and serial dilutions made using Dilution Buffer (50 mM Tris-HCl, 120 mM NaCl, 5 mM KCl, pH 7.4, 0.1% BSA, 400 μM ascorbic acid).
(§4) Following a 60 minute incubation at 22° C. (or a period sufficient to reach equilibrium), the membranes were harvested by rapid filtration over a 96-well UniFilter GF/B plate, pretreated with 0.3% polyethyleneimine, and washed 6 times with 300 μl wash buffer (50 mM Tris-HCl, 0.9% NaCl, pH 7.5 at 4° C.). Plates were dried overnight at room temperature, ˜45 μl of MicroScint™-20 (Perkin Elmer) added and bound radioactivity quantitated via liquid scintillation spectroscopy. Competitive inhibition curves and saturation isotherms were analyzed using GraphPad Prism Software package (GraphPad Software, Inc., San Diego, Calif.). IC50 values were generated from concentration response curves using the Sigmoidal Dose Response (variable slope) algorithm in Prism GraphPad.

[2] = target: T2, hNET (Homo sapiens, UniProt P23975); test: hNET binding assay (Assay 1); details: read-out: NET pKi (converted)
T2 construct: expressed in transfected cells; host or cells: HEK-293 derived cell line, stably transfected; membrane preparation
Procedure: as §1, §2, §3, §4

[3] = ratio of SERT Ki to NET Ki (binding)
[4] = ratio of binding Ki at hSERT to Ki at hNET, rounded off to the nearest tenth
[5] = membranes of HEK-293 cells expressing hNET, 1.0 nM 3H-nisoxetine
[6] = ratio of SERT Ki to NET Ki from binding assays

T1 sequence (P31645 whole entry): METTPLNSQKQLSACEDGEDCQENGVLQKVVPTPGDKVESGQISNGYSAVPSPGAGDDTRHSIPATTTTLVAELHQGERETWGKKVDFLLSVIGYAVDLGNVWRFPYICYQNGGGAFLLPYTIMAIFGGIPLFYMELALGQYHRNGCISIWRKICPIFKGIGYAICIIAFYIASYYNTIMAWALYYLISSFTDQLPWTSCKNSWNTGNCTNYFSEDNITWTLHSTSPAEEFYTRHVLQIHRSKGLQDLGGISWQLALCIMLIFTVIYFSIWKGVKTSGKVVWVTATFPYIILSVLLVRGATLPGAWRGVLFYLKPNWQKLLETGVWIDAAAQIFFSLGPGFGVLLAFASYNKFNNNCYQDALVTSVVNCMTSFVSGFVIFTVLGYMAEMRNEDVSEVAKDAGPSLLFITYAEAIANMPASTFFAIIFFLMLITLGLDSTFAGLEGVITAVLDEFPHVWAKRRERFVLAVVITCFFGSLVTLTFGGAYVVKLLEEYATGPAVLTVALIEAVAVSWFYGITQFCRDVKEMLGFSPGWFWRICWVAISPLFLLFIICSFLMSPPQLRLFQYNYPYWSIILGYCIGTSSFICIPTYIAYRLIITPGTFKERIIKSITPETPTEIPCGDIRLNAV
T2 sequence (P23975 whole entry): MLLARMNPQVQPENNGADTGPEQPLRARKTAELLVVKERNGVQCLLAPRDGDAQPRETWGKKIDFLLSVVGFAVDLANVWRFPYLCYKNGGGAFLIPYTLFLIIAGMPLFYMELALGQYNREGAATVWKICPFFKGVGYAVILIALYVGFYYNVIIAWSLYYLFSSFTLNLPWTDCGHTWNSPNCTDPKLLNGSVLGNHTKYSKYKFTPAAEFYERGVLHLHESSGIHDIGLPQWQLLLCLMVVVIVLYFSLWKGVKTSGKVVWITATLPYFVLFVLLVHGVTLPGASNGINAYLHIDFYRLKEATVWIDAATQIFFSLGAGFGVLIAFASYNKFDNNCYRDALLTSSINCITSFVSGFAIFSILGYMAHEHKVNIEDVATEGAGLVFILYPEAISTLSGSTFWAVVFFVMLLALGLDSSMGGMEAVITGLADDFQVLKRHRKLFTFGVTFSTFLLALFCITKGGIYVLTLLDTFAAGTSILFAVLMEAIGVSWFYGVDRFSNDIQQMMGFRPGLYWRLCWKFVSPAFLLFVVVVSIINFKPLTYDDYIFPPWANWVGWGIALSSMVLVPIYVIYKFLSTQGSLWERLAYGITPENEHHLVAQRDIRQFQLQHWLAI

Compound	SERT Ki/NET Ki [1, 3]	Ki ([2]; hNET binding)	SERT Ki/NET Ki [1, 6]	Ki ([2]; hNET binding assay)	also measured
COc1cc(Cl)c(F)cc1OC(c1ccccc1)C1CCNC1 (centres unmarked) [42-8]	0.4	1.26 nM	–	–	–
Cc1ccc(Cl)c(OC(c2cc(F)cc(F)c2)C2CCNC2)c1F (centres unmarked) [41-8]	7.9	0.398 nM	–	–	–
COc1ccccc1O[C@@H](c1cc(F)cc(F)c1)[C@@H]1CCNC1 (racemic) [Compound 20-31]	–	–	–	–	SERT Ki/NET Ki [1, 4]: 6.3; Ki [2, 5]: 5.01 nM
Fc1ccc(Cl)c(F)c1O[C@@H](c1ccccc1)[C@H]1CCNC1 [40-16]	10	0.158 nM	–	–	–
Clc1cc(Cl)cc(OC(c2ccccc2Cl)C2CCNC2)c1 (centres unmarked) [35-3]	0.1	3.16 nM	–	–	–
COC(=O)c1cccc(Cl)c1O[C@@H](c1ccccc1)[C@H]1CCNC1 [31-17]	–	–	25	3.16 nM	–
COc1ccccc1O[C@H](c1cc(F)cc(F)c1)[C@@H]1CCNC1 [Compound 20-34]	–	–	–	–	SERT Ki/NET Ki [1, 4]: 1; Ki [2, 5]: 3.98 nM
CSc1ccccc1OC(c1ccccc1)C1CCNC1 (centres unmarked) [Compound 19-29]	–	–	–	–	SERT Ki/NET Ki [1, 4]: 25; Ki [2, 5]: 0.631 nM
CCc1cc(F)ccc1OC(c1ccccc1)C1CCNC1 (centres unmarked) [27-23]	–	–	0.8	1 nM	–
Cc1cc(F)ccc1O[C@@H](c1ccccc1)[C@H]1CCNC1 [27-14]	–	–	0.3	2 nM	–
CCOC(=O)c1cc(Cl)ccc1O[C@@H](c1ccccc1)[C@H]1CCNC1 [27-36]	–	–	0.6	3.98 nM	–
Cc1cc(F)cc([C@@H](Oc2c(Cl)ccc(C)c2Cl)[C@@H]2CCNC2)c1 (racemic) [41-23]	0.5	1.58 nM	–	–	–
COc1ccccc1O[C@@H](c1cc(C)cc(F)c1)[C@H]1CCNC1 (racemic) [Compound 20-36]	–	–	–	–	SERT Ki/NET Ki [1, 4]: 7.9; Ki [2, 5]: 1.26 nM
COc1ccc(F)c(Cl)c1OC(c1ccccc1)C1CCNC1 (centres unmarked) [40-23]	0.1	3.16 nM	–	–	–
COc1ccccc1OC(c1cccc(F)c1)C1CCNC1 (centres unmarked) [Compound 20-15]	–	–	–	–	SERT Ki/NET Ki [1, 4]: 4; Ki [2, 5]: 5.01 nM
Fc1cccc(OC(c2ccccc2)C2CCNC2)c1F (centres unmarked) [Compound 25-1]	–	–	–	–	SERT Ki/NET Ki [1, 4]: 32; Ki [2, 5]: 0.794 nM

Compound	SERT Ki/NET Ki [1, 3]	Ki ([2]; hNET binding)	SERT Ki/NET Ki [1, 6]	Ki ([2]; hNET binding assay)	also measured
Cc1ccc(F)c(OC(c2cc(F)cc(F)c2)C2CCNC2)c1F (centres unmarked) [41-7]	1.3	1 nM	–	–	–
Cc1cccc(Cl)c1OC(c1ccccc1)C1CCNC1 (centres unmarked) [31-11]	–	–	1.3	2 nM	–
CCOc1ccccc1OC(c1ccccc1)C1CCNC1 (centres unmarked) [Ex. 5, 3-[(2-Ethoxyphenoxy)phenylmethyl]pyrrolidine]	–	–	–	–	SERT Ki/NET Ki [1, 4]: 32; Ki [2, 5]: 1.26 nM
c1ccc(Cc2ccccc2OC(c2ccccc2)C2CCNC2)cc1 (centres unmarked) [Compound 19-20]	–	–	–	–	SERT Ki/NET Ki [1, 4]: 1.6; Ki [2, 5]: 7.94 nM
Fc1c(Cl)ccc(O[C@@H](c2ccccc2)[C@H]2CCNC2)c1F [36-3]	0.1	6.31 nM	–	–	–
COc1ccc(F)c(F)c1OC(c1cc(F)cc(F)c1)C1CCNC1 (centres unmarked) [41-4]	1	1 nM	–	–	–
Fc1ccc(Cl)c(OC(c2ccccc2)C2CCNC2)c1 (centres unmarked) [29-12]	–	–	2	1.58 nM	–
Cc1ccc(Cl)c(O[C@@H](c2cc(F)cc(F)c2)[C@@H]2CCNC2)c1Cl (racemic) [41-25]	0.2	6.31 nM	–	–	–
Fc1cc(F)cc(C(Oc2c(F)ccc(Cl)c2F)C2CCNC2)c1 (centres unmarked) [41-5]	50	0.2 nM	–	–	–
Cc1ccc(Cl)c(OC(c2ccc(C#N)cc2)C2CCNC2)c1Cl (centres unmarked) [41-15]	0.6	1 nM	–	–	–
COc1cc(Cl)ccc1O[C@@H](c1cc(F)cc(F)c1)[C@H]1CCNC1 [28-19]	–	–	0.8	1 nM	–
COc1cccc(F)c1O[C@@H](c1ccccc1)[C@H]1CCNC1 [31-16]	–	–	79	0.2 nM	–
Fc1ccc(F)c(O[C@H](c2ccccc2)[C@@H]2CCNC2)c1 [29-3]	–	–	0.5	7.94 nM	–
N#Cc1cccc([C@@H](Oc2c(F)ccc(F)c2Cl)[C@@H]2CCNC2)c1 [41-33]	0.4	0.794 nM	–	–	–
COc1cc(F)ccc1OC(c1cc(F)cc(F)c1)C1CCNC1 (centres unmarked) [28-17]	–	–	25	0.398 nM	–
